# Patent publication US20240050526A1, “CATH2 DERIVATIVES FOR STIMULATING INNATE IMMUNE MEMORY” (priority 2020, published 2024)
# Square brackets hold non-standard residues; d marks the D form. Ends that are not written are not given here.
# System: dTHP-1 cells
# Experiment: RNA sequencing of DCATH-2 trained dTHP-1 cells
# Assay type: cell-based, human
# Experimental: dTHP-1 cells (1×10^6/well) were primed for 24 h with DCATH-2 in 6 well plates containing 1 ml medium, using culture medium as control. After priming, cells were washed 3 times and left to rest for 3 days in culture medium. Cells were stimulated for 6 h with 50 ng/ml E. coli O111:B4 LPS or fresh medium. Supernatants were stored for cytokine analysis. Cells were harvested by rinsing once with ice-cold DPBS and lysing cells in 100 μl RLT buffer (Qiagen) containing 1% 2-mercaptoethanol. After scraping, per condition the contents of two wells were transferred into vials, flash frozen in liquid nitrogen and stored at −80° C. for analysis. Total RNA was extracted in RLT buffer (RNeasy kit, Qiagen) supplemented with 2-mercaptoethanol and purified using a Qiagen QiaSymphony SP system. RNA libraries were prepared using the Truseq stranded total RNA (ribo-zero) library prep kit (Illumina) according the manufacturer's recommendations. RNA-sequencing was done with a NextSeq 500 system 1×75 bp high-output kit. Single-end RNASeq reads were processed using the UMCU RNASeq pipeline (v2.3.0) with default settings. Read quality was assessed with FastQC (0.11.4) followed by splice-aware alignment against the human reference genome (GRCh37) with STAR (2.4.2a). RNA expression quantification was performed with htseq-count (0.6.0) in reverse-stranded mode. Differential gene expression analysis was carried out with the DESeq2 package in DEBrowser (https://debrowser.umassmed.edu/). In each comparsion, genes were selected with an absolute fold-change >1.5 and alpha P<0.05. Pathway enrichment analysis was performed in g:Profiler (https://biit.cs.ut.ee/gprofiler/) using separate FDR ranked differentially expressed gene lists for up and down regulated genes with a Benjamini-Hochberg FDR correction for multiple testing and a FDR<0.05 threshold. Enriched pathways of GO Biologic Processes were visualized in Cytoscape (http://www.cytoscape.org/) using EnrichmentMap (http://www.baderlab.org/Software/EnrichmentMap) and a FDR cutoff of 0.01. Similarity statistic threshold was set at Jaccard>0.25 and filtered for gene set sizes between 5 and 500 genes.
# [1] = DCATH-2 training, during LPS stimulation
# [2] = RNAseq experiment, 24 h priming, 3 days rest, 6 h E. coli LPS stimulation
# [3] = trained LPS-stimulated cells vs LPS-stimulated control cells
# [4] = trained and rested cells vs unstimulated control cells
substance,measurement,setting,value
"rfgrflrkirrfrpkvtitiqgsarf-NH2 ([dR][dF]G[dR][dF][dL][dR][dK][dI][dR][dR][dF][dR][dP][dK][dV][dT][dI][dT][dI][dQ]G[dS][dA][dR][dF]-NH2; N-terminus assumed; SMILES CC[C@@H](C)[C@@H](NC(=O)[C@@H](CCCCN)NC(=O)[C@@H](CCCNC(=N)N)NC(=O)[C@@H](CC(C)C)NC(=O)[C@@H](Cc1ccccc1)NC(=O)[C@@H](CCCNC(=N)N)NC(=O)CNC(=O)[C@@H](Cc1ccccc1)NC(=O)[C@H](N)CCCNC(=N)N)C(=O)N[C@H](CCCNC(=N)N)C(=O)N[C@H](CCCNC(=N)N)C(=O)N[C@H](Cc1ccccc1)C(=O)N[C@H](CCCNC(=N)N)C(=O)N1CCC[C@@H]1C(=O)N[C@H](CCCCN)C(=O)N[C@@H](C(=O)N[C@@H](C(=O)N[C@@H](C(=O)N[C@@H](C(=O)N[C@@H](C(=O)N[C@H](CCC(N)=O)C(=O)NCC(=O)N[C@H](CO)C(=O)N[C@H](C)C(=O)N[C@H](CCCNC(=N)N)C(=O)N[C@H](Cc1ccccc1)C(N)=O)[C@H](C)CC)[C@H](C)O)[C@H](C)CC)[C@H](C)O)C(C)C) [DCATH-2, full D-amino acid analog of CATH-2]","Log 2 fold change, gene AHNAK2",[1],1.12
same,"Log 2 fold change, gene CCL18",[1],2.81
same,"Log 2 fold change, gene CCRL2",[1],1.04
same,"Log 2 fold change, gene CD22",[1],1.18
same,"Log 2 fold change, gene CSF2",[1],1.81
same,"Log 2 fold change, gene CXCL3",[1],1.18
same,"Log 2 fold change, gene FAM213B",[1],1.02
same,"Log 2 fold change, gene FOXF1",[1],1.21
same,"Log 2 fold change, gene HSPBAP1",[1],1.06
same,"Log 2 fold change, gene IL1A",[1],1.15
same,"Log 2 fold change, gene IL6",[1],2.17
same,"Log 2 fold change, gene KLF2",[1],2.54
same,"Log 2 fold change, gene LIF",[1],2.73
same,"Log 2 fold change, gene MFSD2A",[1],1.04
same,"Log 2 fold change, gene MYLK",[1],1.17
same,"Log 2 fold change, gene PTGS2",[1],1.29
same,"Log 2 fold change, gene SEPT3",[1],1.06
same,"Log 2 fold change, gene TIE1",[1],1.46
same,"Log 2 fold change, gene TNFSF15",[1],1.19
same,"Log 2 fold change, gene TRIM47",[1],2.45
same,"Log 2 fold change, gene TRPM8",[1],1.36
same,"Log 2 fold change, gene ZNF358",[1],1.04
same,amplification of IL-6 production,[2],3.3 fold
same,amplification of TNFα production,[2],2.5 fold
same,downregulated DEGs,[3],54
same,upregulated DEGs,[3],71
same,downregulated DEGs,[4],126
same,upregulated DEGs,[4],156
